Measured values taken from doi:10.1101/2025.07.09.663793, “Activating and inhibiting nucleotide signals coordinate bacterial anti-phage defense” (bioRxiv, 2025).

How the values were obtained:
CloA (SeCloA) [1] = biological target: T1, CloA (SeCloA); test: activation of purified CloA dGTPase, phosphate release and LC-MS; type: biochemical, Salmonella enterica
T1 construct: wild-type CloA

CloA (SeCloA) [2] = biological target: T2, CloA (SeCloA) (Salmonella enterica, UniProt A0A5H6DAK1, H126A/E129A); test: […] Å cryo-EM structure of CloA–dGTP–dTTP; type: binding
T2 construct: gene dgt; CloA^HEAA, octamer

CloA (SeCloA) [3] = biological target: T1, CloA (SeCloA); test: inhibition of purified CloA dGTPase, phosphate release (malachite green); type: biochemical, Salmonella enterica
CloA (SeCloA) [4] = biological target: T3, CloA (SeCloA); test: […] Å cryo-EM of CloA co-expressed with CloB; LC-MS of released ligand; dGTPase inhibition (malachite green); type: biochemical, Salmonella enterica
T3 construct: full-length CloA from S. enterica SA20044414, octamer

[5] = biological target: Salmonella enterica SA20044414 Clover protein A (CloA), wild type (Salmonella enterica SA20044414); test: cryo-EM structure; apo Salmonella CloA, 1 mg/mL, vitrified at 4°C; C4 symmetry
[6] = biological target: Shewanella putrefaciens CN-32 dGTPase (Shewanella putrefaciens CN-32); test: crystal structure; SpdGTPase at 10 mg/mL in 20 mM HEPES-KOH pH 7.5, 100 mM KCl; hanging drop, 18°C; reservoir 0.2 M magnesium chloride, 0.1 M HEPES-NaOH pH 7.5, 30% PEG-400

With `Cc1cn([C@H]2C[C@H](O)[C@@H](COP(=O)(O)OP(=O)(O)OP(=O)(O)O)O2)c(=O)[nH]c1=O` [dTTP] the EC50 (CloA (SeCloA) [1]) was ~15 µM and the “2.6 Å cryo-EM structure of CloA-dGTP-dTTP” value (CloA (SeCloA) [2]) was “In the CloA–dGTP–dTTP active state structure, dTTP is bound at the CloAAB interface in an adjacent pocket”.
For `Cc1cn([C@H]2C[C@H](OP(=O)(O)OC[C@H]3O[C@@H](n4cc(C)c(=O)[nH]c4=O)C[C@@H]3O)[C@@H](COP(=O)(O)OP(=O)(O)O)O2)c(=O)[nH]c1=O` [p2diT], the IC50 (CloA (SeCloA) [3]) was ~20.9 µM.
Molecule `Cc1cn([C@H]2C[C@H](OP(=O)(O)OC[C@H]3O[C@@H](n4cc(C)c(=O)[nH]c4=O)C[C@@H]3O)[C@@H](COP(=O)(O)OP(=O)(O)OP(=O)(O)O)O2)c(=O)[nH]c1=O` [p3diT, 5′-triphosphothymidyl-3′5′-thymidine] has an IC50 (CloA (SeCloA) [4]) of ~7.6 µM.
“Salmonella enterica SA20044414 Clover protein A (CloA), wild type (enzyme)” gave a stoichiometry N [5] of 8.
With “Shewanella putrefaciens CN-32 dGTPase (enzyme)” the stoichiometry N [6] was 6.
